Laboratory results reported in patent US10800785B2, “Substituted pyrrolo[2,3-d]pyridazin-4-ones and pyrazolo[3,4-d]pyridazin-4-ones as protein kinase inhibitors” (Shanghai Fochon Pharmaceutical Co., Ltd., priority 2016, dated 2020).

Each compound was assayed on DOHH2 cells (assay: Cell proliferation assay (MTS) in DOHH2 cells, mechanism-based assay for BTK inhibition). Conditions: Homo sapiens, DOHH-2, 120 h incubation, 5000 cells/well.
Description: Cell Proliferation Assays
MTS testing kit was purchased from Promega. The DMEM, Fetal bovine serum and Penicillin-Streptomycin were purchased from Gibco. Dimethyl sulfoxide (DMSO) was purchased from Sigma.
To investigate whether a compound is able to inhibit the activity of BTK in cells, a mechanism-based assay using DOHH2 (DSMZ catalog#: ACC47) and Mino (ATCC® Number CRL-3000™) cells was developed. In this assay, inhibition of BTK was detected by the inhibition of DOHH2 and Mino cell proliferations. DOHH2 or Mino cells were cultured in culture flasks to 40-80% confluence in RPMI-1640 plus 10% fetal bovine serum. C ells were collected and plated onto 96-well plates at desired cell density (DOHH2: 5000 cells/well; Mino: 10000 cells/well). Plates were incubated overnight at 37° C., with 5% CO2 to adhere. Compounds were added to the plates, and the final compound concentrations were 10000, 3333, 1111, […], 41, 14, 4.6 and 1.5 nM. Plates were placed at 37° C., with 5% CO2 for 120 h (DOHH2) or 72 h (Mino). 20 μl MTS/100 μl medium mixture solution were added to each well and the plates were incubated for exactly 2 hours. The reaction was stopped by adding 25 μl 10% SDS per well.
Select compounds prepared as described above were assayed according to the biological procedures described herein.
For `C=CC(=O)N1CCC(c2cn(-c3ccc(Oc4ccccc4)cc3)c3c(N)n[nH]c(=O)c23)C1` (stereo not drawn) [Example 1, 3-(1-acryloylpyrrolidin-3-yl)-7-amino-1-(4-phenoxyphenyl)-1,5-dihydro-4H-pyrrolo[2,3-d]pyridazin-4-one], the IC50 was 36 nM. `CC#CC(=O)N1CCC(c2cn(-c3ccc(Oc4ccccc4)cc3)c3c(N)n[nH]c(=O)c23)C1` (stereo not drawn) [Example 2, 7-amino-3-(1-(but-2-ynoyl)pyrrolidin-3-yl)-1-(4-phenoxyphenyl)-1,5-dihydro-4H-pyrrolo[2,3-d]pyridazin-4-one] was tested, and the IC50 was 244 nM. `C=CC(=O)N1CCC(c2cn(-c3ccc(Oc4c(F)cccc4F)cc3)c3c(N)n[nH]c(=O)c23)C1` (stereo not drawn) [Example 3, 3-(1-acryloylpyrrolidin-3-yl)-7-amino-1-(4-(2,6-difluorophenoxy)phenyl)-1,5-dihydro-4H-pyrrolo[2,3-d]pyridazin-4-one] gave an IC50 of 147 nM. With `CC#CC(=O)N1CCC(c2cn(-c3ccc(Oc4c(F)cccc4F)cc3)c3c(N)n[nH]c(=O)c23)C1` (stereo not drawn) [Example 4, 7-amino-3-(1-(but-2-ynoyl)pyrrolidin-3-yl)-1-(4-(2,6-difluorophenoxy)phenyl)-1,5-dihydro-4H-pyrrolo[2,3-d]pyridazin-4-one] the IC50 was 250 nM. `C=CC(=O)N1CCC(c2nn(-c3ccc(Oc4ccccc4)cc3)c3c(N)n[nH]c(=O)c23)C1` (stereo not drawn) [Example 5, 3-(1-acryloylpyrrolidin-3-yl)-7-amino-1-(4-phenoxyphenyl)-1,5-dihydro-4H-pyrazolo[3,4-d]pyridazin-4-one] showed an IC50 of 25 nM. For `CC#CC(=O)N1CCC(c2nn(-c3ccc(Oc4ccccc4)cc3)c3c(N)n[nH]c(=O)c23)C1` (stereo not drawn) [Example 6, 7-amino-3-(1-(but-2-ynoyl)pyrrolidin-3-yl)-1-(4-phenoxyphenyl)-1,5-dihydro-4H-pyrazolo[3,4-d]pyridazin-4-one], the IC50 was 179 nM. Work on `C=CC(=O)N1CCC(c2nn(-c3ccc(Oc4c(F)cccc4F)cc3)c3c(N)n[nH]c(=O)c23)C1` (stereo not drawn) [Example 7, 3-(1-acryloylpyrrolidin-3-yl)-7-amino-1-(4-(2,6-difluorophenoxy)phenyl)-1,5-dihydro-4H-pyrazolo[3,4-d]pyridazin-4-one] yielded an IC50 of 182 nM. `CC#CC(=O)N1CCC(c2nn(-c3ccc(Oc4c(F)cccc4F)cc3)c3c(N)n[nH]c(=O)c23)C1` (stereo not drawn) [Example 8, 7-amino-3-(1-(but-2-ynoyl)pyrrolidin-3-yl)-1-(4-(2,6-difluorophenoxy)phenyl)-1,5-dihydro-4H-pyrazolo[3,4-d]pyridazin-4-one] was tested, and the IC50 was 304 nM. `C=CC(=O)N1CC[C@@H](c2cn(-c3ccc(Oc4ccccc4)cc3)c3c(N)n[nH]c(=O)c23)C1` [Example 9, (S)-3-(1-acryloylpyrrolidin-3-yl)-7-amino-1-(4-phenoxyphenyl)-1,5-dihydro-4H-pyrrolo[2,3-d]pyridazin-4-one] was tested, and the IC50 was 32 nM. Work on `C=CC(=O)N1CC[C@H](c2cn(-c3ccc(Oc4ccccc4)cc3)c3c(N)n[nH]c(=O)c23)C1` [Example 10, (R)-3-(1-acryloylpyrrolidin-3-yl)-7-amino-1-(4-phenoxyphenyl)-1,5-dihydro-4H-pyrrolo[2,3-d]pyridazin-4-one] yielded an IC50 of 20 nM. Work on `C=CC(=O)N1CCC[C@@H](c2cn(-c3ccc(Oc4ccccc4)cc3)c3c(N)n[nH]c(=O)c23)C1` [Example 11, (S)-3-(1-acryloylpiperidin-3-yl)-7-amino-1-(4-phenoxyphenyl)-1,5-dihydro-4H-pyrrolo[2,3-d]pyridazin-4-one] yielded an IC50 of 40 nM. Compound `C=CC(=O)N1CCC[C@H](c2cn(-c3ccc(Oc4ccccc4)cc3)c3c(N)n[nH]c(=O)c23)C1` [Example 12, (R)-3-(1-acryloylpiperidin-3-yl)-7-amino-1-(4-phenoxyphenyl)-1,5-dihydro-4H-pyrrolo[2,3-d]pyridazin-4-one] has an IC50 of 74 nM. `C=CC(=O)N1CC[C@@H](c2nn(-c3ccc(Oc4ccccc4)cc3)c3c(N)n[nH]c(=O)c23)C1` [Example 13, (R)-3-(1-acryloylpyrrolidin-3-yl)-7-amino-1-(4-phenoxyphenyl)-1,5-dihydro-4H-pyrazolo[3,4-d]pyridazin-4-one] gave an IC50 of 107 nM. `C=CC(=O)N1CC[C@H](c2nn(-c3ccc(Oc4ccccc4)cc3)c3c(N)n[nH]c(=O)c23)C1` [Example 14, (S)-3-(1-acryloylpyrrolidin-3-yl)-7-amino-1-(4-phenoxyphenyl)-1,5-dihydro-4H-pyrazolo[3,4-d]pyridazin-4-one] showed an IC50 of 50 nM. Compound `C=CC(=O)N1CCC[C@@H](c2nn(-c3ccc(Oc4ccccc4)cc3)c3c(N)n[nH]c(=O)c23)C1` [Example 15, (R)-3-(1-acryloylpiperidin-3-yl)-7-amino-1-(4-phenoxyphenyl)-1,5-dihydro-4H-pyrazolo[3,4-d]pyridazin-4-one] has an IC50 of 40 nM. For `C=CC(=O)N1CCC[C@H](c2nn(-c3ccc(Oc4ccccc4)cc3)c3c(N)n[nH]c(=O)c23)C1` [Example 16, (S)-3-(1-acryloylpiperidin-3-yl)-7-amino-1-(4-phenoxyphenyl)-1,5-dihydro-4H-pyrazolo[3,4-d]pyridazin-4-one], the IC50 was 37 nM. `C=CC(=O)N1CC[C@@H](c2cn(-c3ccc(Oc4ccccc4F)cc3)c3c(N)n[nH]c(=O)c23)C1` [Example 17, (S)-3-(1-acryloylpyrrolidin-3-yl)-7-amino-1-(4-(2-fluorophenoxy)phenyl)-1,5-dihydro-4H-pyrrolo[2,3-d]pyridazin-4-one] gave an IC50 of 21 nM. `C=CC(=O)N1CC[C@@H](c2cn(-c3ccc(Oc4cccc(F)c4)cc3)c3c(N)n[nH]c(=O)c23)C1` [Example 18, (S)-3-(1-acryloylpyrrolidin-3-yl)-7-amino-1-(4-(3-fluorophenoxy)phenyl)-1,5-dihydro-4H-pyrrolo[2,3-d]pyridazin-4-one] showed an IC50 of 181 nM. For `C=CC(=O)N1CC[C@@H](c2cn(-c3ccc(Oc4c(F)cccc4F)cc3)c3c(N)n[nH]c(=O)c23)C1` [Example 21], the IC50 was 100 nM. In the case of `C=CC(=O)N1CC[C@@H](c2cn(-c3ccc(Oc4cc(F)cc(F)c4)cc3)c3c(N)n[nH]c(=O)c23)C1` [Example 22, (S)-3-(1-acryloylpyrrolidin-3-yl)-7-amino-1-(4-(3,5-difluorophenoxy)phenyl)-1,5-dihydro-4H-pyrrolo[2,3-d]pyridazin-4-one], the IC50 is reported as 86 nM. `C=CC(=O)N1CC[C@H](c2cn(-c3ccc(Oc4ccccc4F)cc3)c3c(N)n[nH]c(=O)c23)C1` [Example 23, (R)-3-(1-acryloylpyrrolidin-3-yl)-7-amino-1-(4-(2-fluorophenoxy)phenyl)-1,5-dihydro-4H-pyrrolo[2,3-d]pyridazin-4-one] gave an IC50 of 42 nM. For `C=CC(=O)N1CC[C@H](c2cn(-c3ccc(Oc4cccc(F)c4)cc3)c3c(N)n[nH]c(=O)c23)C1` [Example 24, (R)-3-(1-acryloylpyrrolidin-3-yl)-7-amino-1-(4-(3-fluorophenoxy)phenyl)-1,5-dihydro-4H-pyrrolo[2,3-d]pyridazin-4-one], the IC50 was 373 nM. `C=CC(=O)N1CC[C@H](c2cn(-c3ccc(Oc4cccc(F)c4F)cc3)c3c(N)n[nH]c(=O)c23)C1` [Example 26, (R)-3-(1-acryloylpyrrolidin-3-yl)-7-amino-1-(4-(2,3-difluorophenoxy)phenyl)-1,5-dihydro-4H-pyrrolo[2,3-d]pyridazin-4-one] was tested, and the IC50 was 260 nM. `C=CC(=O)N1CC[C@H](c2cn(-c3ccc(Oc4c(F)cccc4F)cc3)c3c(N)n[nH]c(=O)c23)C1` [Example 27, (R)-3-(1-acryloylpyrrolidin-3-yl)-7-amino-1-(4-(2,6-difluorophenoxy)phenyl)-1,5-dihydro-4H-pyrrolo[2,3-d]pyridazin-4-one] showed an IC50 of 47 nM. Compound `C=CC(=O)N1CCC[C@@H](c2cn(-c3ccc(Oc4ccccc4F)cc3)c3c(N)n[nH]c(=O)c23)C1` [Example 29, (S)-3-(1-acryloylpiperidin-3-yl)-7-amino-1-(4-(2-fluorophenoxy)phenyl)-1,5-dihydro-4H-pyrrolo [2,3-d]pyridazin-4-one] has an IC50 of 46 nM. `C=CC(=O)N1CCC[C@@H](c2cn(-c3ccc(Oc4cccc(F)c4)cc3)c3c(N)n[nH]c(=O)c23)C1` [Example 30, (S)-3-(1-acryloylpiperidin-3-yl)-7-amino-1-(4-(3-fluorophenoxy)phenyl)-1,5-dihydro-4H-pyrrolo [2,3-d]pyridazin-4-one] was tested, and the IC50 was 129 nM. Compound `C=CC(=O)N1CCC[C@@H](c2cn(-c3ccc(Oc4ccc(F)cc4)cc3)c3c(N)n[nH]c(=O)c23)C1` [Example 31, (S)-3-(1-acryloylpiperidin-3-yl)-7-amino-1-(4-(4-fluorophenoxy)phenyl)-1,5-dihydro-4H-pyrrolo [2,3-d]pyridazin-4-one] has an IC50 of 167 nM. `C=CC(=O)N1CCC[C@@H](c2cn(-c3ccc(Oc4cccc(F)c4F)cc3)c3c(N)n[nH]c(=O)c23)C1` [Example 32, (S)-3-(1-acryloylpiperidin-3-yl)-7-amino-1-(4-(2,3-difluorophenoxy)phenyl)-1,5-dihydro-4H-pyrrolo[2,3-d]pyridazin-4-one] was tested, and the IC50 was 58 nM. Work on `C=CC(=O)N1CCC[C@@H](c2cn(-c3ccc(Oc4c(F)cccc4F)cc3)c3c(N)n[nH]c(=O)c23)C1` [Example 33, (S)-3-(1-acryloylpiperidin-3-yl)-7-amino-1-(4-(2,6-difluorophenoxy)phenyl)-1,5-dihydro-4H-pyrrolo[2,3-d]pyridazin-4-one] yielded an IC50 of 221 nM. Work on `C=CC(=O)N1CCC[C@@H](c2cn(-c3ccc(Oc4cc(F)cc(F)c4)cc3)c3c(N)n[nH]c(=O)c23)C1` [Example 34, (S)-3-(1-acryloylpiperidin-3-yl)-7-amino-1-(4-(3,5-difluorophenoxy)phenyl)-1,5-dihydro-4H-pyrrolo[2,3-d]pyridazin-4-one] yielded an IC50 of 42 nM.
